Literature values in patent US20230372421A1, “IMMATURE POMEGRANATE EXTRACT FORMULATIONS” (CONSIGLIO NAZIONALE DELLE RICERCHE, priority 2020, published 2023).

System: cells of neuronal origin
Settings: Jin, Yu, Wang & Xu, 2016

For `O=C1O[C@H]2[C@H](OC(=O)c3cc(O)c(O)c(O)c3)O[C@@H]3COC(=O)c4cc(O)c(O)c(O)c4-c4c(cc(O)c(O)c4O)C(=O)O[C@H]2[C@@H]3OC(=O)c2cc(O)c(O)c3c2C2C1=CC(=O)C(O)(O)C2(O)O3` (stereo partly shown) [granatin B], the anticancer properties is given as “important anticancer properties”.
